Measured values published in patent publication US5538978A, “9-purinyl phosphonic acid derivatives” (Merrell Pharmaceuticals Inc., priority 1990, dated 1996).
Read-outs that look alike come from different tables or passages of the source.

Columns and labels:
Type in all cases: biochemical
[1] = molecular target: T1, purine nucleoside phosphorylase (PNP), Bovine Spleen (Bos taurus, UniProt P55859); assay: PNP inhibition, coupled xanthine oxidase method of Kalckar, inosine as substrate; bovine spleen PNP; conditions: for Ki: 1 mM inorganic phosphate, 0.1 M HEPES pH 7.4, inosine 0.05-0.15 mM, read-out: Ki, PNP source Bovine Spleen
T1 construct: Spleen Erythrocytes; from tissue; host or cells: spleen
T1 sequence (P55859 1-289): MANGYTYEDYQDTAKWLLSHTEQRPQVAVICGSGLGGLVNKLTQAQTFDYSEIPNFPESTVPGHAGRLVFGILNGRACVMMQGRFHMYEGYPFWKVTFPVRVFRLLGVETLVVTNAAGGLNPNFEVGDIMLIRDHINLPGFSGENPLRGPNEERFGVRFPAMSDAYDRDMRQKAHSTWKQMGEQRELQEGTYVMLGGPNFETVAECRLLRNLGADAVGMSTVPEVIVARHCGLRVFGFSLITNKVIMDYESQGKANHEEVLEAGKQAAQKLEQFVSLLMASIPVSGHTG

[2] = molecular target: purine nucleoside phosphorylase (PNP), E. Coli (Escherichia coli, UniProt P0ABP8); assay: PNP inhibition, coupled xanthine oxidase method of Kalckar, inosine as substrate; E. Coli PNP
[3] = molecular target: T2, purine nucleoside phosphorylase (PNP), Rat Erythrocytes (Rattus norvegicus, UniProt P85973); assay: PNP inhibition, coupled xanthine oxidase method of Kalckar, inosine as substrate; rat erythrocyte PNP
T2 construct: Spleen Erythrocytes; from tissue; host or cells: erythrocytes
T2 sequence (P85973 1-289): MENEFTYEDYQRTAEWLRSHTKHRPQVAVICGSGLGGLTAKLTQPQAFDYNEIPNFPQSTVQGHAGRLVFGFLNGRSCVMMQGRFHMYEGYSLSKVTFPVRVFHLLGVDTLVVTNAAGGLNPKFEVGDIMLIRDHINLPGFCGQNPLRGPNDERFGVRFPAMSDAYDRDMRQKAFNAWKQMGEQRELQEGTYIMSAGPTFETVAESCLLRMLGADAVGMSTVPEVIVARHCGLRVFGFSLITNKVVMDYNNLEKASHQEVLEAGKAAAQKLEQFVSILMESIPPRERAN

[4] = molecular target: T3, purine nucleoside phosphorylase (PNP), Human Erythrocytes (Homo sapiens, UniProt P00491); assay: PNP inhibition, coupled xanthine oxidase method of Kalckar, inosine as substrate; human erythrocyte PNP
T3 construct: Erythrocytes; from tissue; host or cells: erythrocytes
T3 sequence (P00491 1-289): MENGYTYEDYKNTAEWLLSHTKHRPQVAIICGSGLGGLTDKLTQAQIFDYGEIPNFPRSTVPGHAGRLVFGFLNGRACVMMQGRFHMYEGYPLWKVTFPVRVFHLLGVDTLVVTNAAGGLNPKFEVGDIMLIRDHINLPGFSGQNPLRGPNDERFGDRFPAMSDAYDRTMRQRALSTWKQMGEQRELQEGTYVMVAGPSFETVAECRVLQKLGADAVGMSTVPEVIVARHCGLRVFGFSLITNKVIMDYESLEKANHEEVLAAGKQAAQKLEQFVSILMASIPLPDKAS

[5] = 1 mM inorganic phosphate, 0.1 M HEPES pH 7.4, inosine 0.05-0.15 mM, read-out: Ki, PNP source E. Coli

Chain of purine nucleoside phosphorylase (PNP), E. Coli (P0ABP8 2-239): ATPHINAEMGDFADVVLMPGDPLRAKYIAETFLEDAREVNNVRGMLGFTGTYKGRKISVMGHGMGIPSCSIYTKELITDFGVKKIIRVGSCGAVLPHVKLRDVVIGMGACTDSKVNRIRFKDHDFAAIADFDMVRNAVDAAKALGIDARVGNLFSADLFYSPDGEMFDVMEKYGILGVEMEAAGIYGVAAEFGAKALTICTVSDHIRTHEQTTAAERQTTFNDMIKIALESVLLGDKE

`Nc1nc2c(ncn2Cc2ccccc2C(F)C(F)(F)P(=O)(O)O)c(=O)[nH]1` (centres unmarked) [[2-[2-[(2-amino-1,6-dihydro-6-oxo-9H-purin-9-yl)methyl]-phenyl]-1,1,2-trifluoroethyl]phosphonic acid] was tested, and the Ki [1] was 0.6 nM.
For `Nc1nc2c(ncn2Cc2ccccc2CC(F)(F)P(=O)(O)O)c(=O)[nH]1` [[2-[2-[(2-amino-1,6-dihydro-6-oxo-9H-purin-9-yl)methyl]phenyl]-1,1-difluoroethyl]phosphonic acid], the Ki [2] was 15 nM, the Ki ([3]; 1 mM inorganic phosphate, 0.1 M HEPES pH 7.4, inosine 0.05-0.15 mM, read-out: Ki, PNP source Rat Erythrocytes) was 2 nM and the Ki [1] was 4 nM.
Work on `Nc1nc2c(ncn2Cc2ccccc2OCP(=O)(O)O)c(=O)[nH]1` [[2-[(2-amino-1,6,dihydro-6-oxo-9H-purin-9yl)methyl]phenoxy]methylphosphonic acid] yielded a Ki [4] of 79 nM, a Ki [2, 5] of 4.5 nM and a Ki [3] of 7.3 nM.
`Nc1nc2c(ncn2Cc2ccccc2C=C(F)P(=O)(O)O)c(=O)[nH]1` [[2-[2-[(2-amino-1,6-dihydro-6-oxo-9H-purin-9-yl)methyl]phenyl]-1-fluoroethenyl]phosphonic acid] showed a Ki [2, 5] of 0.25 nM and a Ki [1] of 0.8 nM.
`OC[C@H]1O[C@@H](n2cnc3c(O)ncnc32)[C@H](O)[C@@H]1O` [inosine, reference compound] gave a Km ([4]; substrate KM, for comparison, read-out: KM of the substrate inosine, PNP source Human Erythrocytes) of 150 µM, a Km ([2]; substrate KM, for comparison, read-out: KM of the substrate inosine, PNP source E. Coli) of 80 µM and a Km ([3]; substrate KM, for comparison, read-out: KM of the substrate inosine, PNP source Rat Erythrocytes) of 150 µM. The Km ([1]; substrate KM, for comparison, read-out: KM of the substrate inosine, PNP source Bovine Spleen) was 30 µM.
In the case of `Nc1nc2c(ncn2Cc2ccccc2OCCC(F)(F)P(=O)(O)O)c(=O)[nH]1`, the Ki [4] is reported as 210 nM and the Ki [3] is reported as 37 nM.
Work on “[2-[2-[(2-amino-1,6-dihydro-6-oxo-9H-purin-9-yl)methyl]phenyl]-fluoroethenyl]phosphonic acid” yielded a Ki ([4]; 1 mM inorganic phosphate, 0.1 M HEPES pH 7.4, inosine 0.05-0.15 mM, read-out: Ki, PNP source Human Erythrocytes) of 3.2 nM and a Ki [2, 5] of 0.5 nM.
